# From patent US11279733B2, “Peptide antibiotics” (priority 2017, dated 2022)
# Where two headings read alike, the source gives them in different places. Positions of bridges follow the written chain, without caps; N, C: chain ends. Non-standard residues stand in square brackets, D forms with d. Residues, ends and D or L forms follow the SMILES beside them. *: point of attachment. Decanoyl(3R-OH) = CCCCCCC[C@@H](O)CC(=O)*; hPhe = N[C@@H](CCc1ccccc1)C(=O)O; Nonanoyl = CCCCCCCCC(=O)*; dDab = NCC[C@@H](N)C(=O)O; Octanoyl = CCCCCCCC(=O)*; dDap = NC[C@@H](N)C(=O)O; Dab = NCC[C@H](N)C(=O)O
# How the values were obtained:
# bacterial strains = experiment: Potentiation/synergy antimicrobial assay (checkerboard, FICI) with antibiotics; assay type: cell-based; details: GN_181 E. coli mcr-1
# Experimental: Potentiation/synergy antimicrobial assays were conducted in the same manner as the standard MICs described above, with the following modifications. Assays were performed in 384-well non-binding surface plates (NBS; Corning 3460) and in Cation-adjusted Mueller Hinton Broth (CA-MHB; BD, Cat. No. 212322) with a final assay volume of 50 μL once bacteria was added at 5×10^5 CFU/mL. Antibiotics and octapeptin compounds were plated in duplicate as a 2-fold concentration series, in a matrix checkerboard format. The bacterial cell density of the resultant assay plates after 18-20 h incubation at 37° C. was read by optical density 600 nm (OD600) using a Tecan M1000 Pro Spectrophotometer, and analysed for ≥90% growth inhibition compared to the growth control to determine active concentrations. Synergistic effect was calculated based on the fractional inhibitory concentration index (FICI) by the following equation, where synergy is deemed FICI 0.5: […]
# P. aeruginosa ATCC 27853 = details: ATCC 27853
# Outline: (§1)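 Mid-log cultures grown in Mueller Hinton broth at 37° C were tested by 2-fold broth microdilution at 5×10^5 CFU/mL final. Compounds were dissolved in water and tested over a final range of 32 to 0.015 μg/mL.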
# [1] = test system: K. pneumoniae GN_102 PmxR; details: GN 102 PmxR
# Outline: as §1
# [2] = test system: P. aeruginosa GN_043, PmxR
# Outline: as §1
# E. coli ATCC 25922 = details: ATCC 25922
# Outline: as §1
# A. baumannii ATCC 19606 = details: ATCC 19606
# Outline: as §1
# K. pneumoniae ATCC 13883 = details: ATCC 13883
# Outline: as §1
# A. baumannii GN_093 PmxR = details: GN 093 PmxR
# Outline: as §1
# [3] = test system: P. aeruginosa GN_105, PmxR; details: GN 105, PmxR
# Outline: as §1
# [4] = test system: K. pneumoniae GN_106, PmxR; details: GN 106, PmxR
# Outline: as §1
# [5] = test system: K. pneumoniae ATCC 700603, MDR; details: ATCC 700603
# Outline: as §1
# [6] = test system: S. aureus ATCC 25923, MSSA; details: ATCC 25923
# Outline: as §1
# [7] = test system: K. pneumoniae ATCC BAA-2146, NDM-1 pos; details: ATCC BAA-2146
# Outline: as §1
Structure (SMILES),MIC of antibiotic with OctC4 at concn 0 (bacterial strains; OctC4 0 μg/mL) [µg/mL],MIC of antibiotic with OctC4 at concn 0.03 (bacterial strains; OctC4 0.03 μg/mL) [µg/mL],MIC of antibiotic with OctC4 at concn 0.0625 (bacterial strains; OctC4 0.0625 μg/mL) [µg/mL],MIC of antibiotic with OctC4 at concn 0.125 (bacterial strains; OctC4 0.125 μg/mL) [µg/mL],MIC of antibiotic with OctC4 at concn 0.25 (bacterial strains; OctC4 0.25 μg/mL) [µg/mL],MIC P. aeruginosa ATCC 27853 (P. aeruginosa ATCC 27853) [µg/mL],MIC K. pneumoniae GN_102 PmxR [1] [µg/mL],"MIC P. aeruginosa GN_043, PmxR ([2]; polymyxin-resistant) [µg/mL]",MIC E. coli ATCC 25922 (E. coli ATCC 25922) [µg/mL],MIC A. baumannii ATCC 19606 (A. baumannii ATCC 19606) [µg/mL],MIC K. pneumoniae ATCC 13883 (K. pneumoniae ATCC 13883) [µg/mL],MIC A. baumannii GN_093 PmxR (A. baumannii GN_093 PmxR) [µg/mL],"MIC P. aeruginosa GN_105, PmxR [3] [µg/mL]","MIC K. pneumoniae GN_106, PmxR [4] [µg/mL]","MIC K. pneumoniae ATCC 700603, MDR [5] [µg/mL]","MIC S. aureus ATCC 25923, MSSA [6] [µg/mL]","MIC K. pneumoniae ATCC BAA-2146, NDM-1 pos [7] [µg/mL]","MIC P. aeruginosa GN_043, PmxR ([2]; P. aeruginosa GN_043, PmxR) [µg/mL]"
"CC(=O)NC[C@H]1CN(c2ccc(N3CCOCC3)c(F)c2)C(=O)O1 [Linezolid, linezolid]",>32,8,4,4,0.25,–,–,–,–,–,–,–,–,–,–,–,–,–
"CCCCCCC[C@@H](O)CC(=O)N[C@H](CCN)C(=O)N[C@H]1CCNC(=O)[C@H](Cc2c[nH]c3ccccc23)NC(=O)[C@H](CCN)NC(=O)[C@H](CCN)NC(=O)[C@H](CCc2ccccc2)NC(=O)[C@@H](Cc2ccccc2)NC(=O)[C@H](CCN)NC1=O [compound 8834, nC10-3(R)OH-D-Dab-cyc[L-Dab-L-Dab-D-Phe-L-hPhe-L-Dab-L-Dab-L-Trp]] ({Decanoyl(3R-OH)}-[dDab][Dab][Dab][dF][hPhe][Dab][Dab]W; lactam 2-C)",–,–,–,–,–,4,4,4,8,8,4,8,32,8,8,4,8,–
"CCCCCCC[C@@H](O)CC(=O)N[C@H](CN)C(=O)N[C@H]1CCNC(=O)[C@H](CC(C)C)NC(=O)[C@H](CCN)NC(=O)[C@H](CCN)NC(=O)[C@H](CC(C)C)NC(=O)[C@@H](CC(C)C)NC(=O)[C@H](CCN)NC1=O [compound 8977, nC10-3(R)OH-D-Dap-(L-Dab-L-Dab-D-Leu-L-Leu-L-Dab-L-Dab-L-Leu)] ({Decanoyl(3R-OH)}-[dDap][Dab][Dab][dL]L[Dab][Dab]L; lactam 2-C)",–,–,–,–,–,4,2,–,4,8,8,2,2,4,4,32,8,2
"CCCCCCCC(=O)N[C@H](CN)C(=O)N[C@H]1CCNC(=O)[C@H](CC(C)C)NC(=O)[C@H](CCN)NC(=O)[C@H](CCN)NC(=O)[C@H](CC(C)C)NC(=O)[C@@H](CC(C)C)NC(=O)[C@H](CCN)NC1=O [compound 8978, nC7CO-D-Dap-cyc[L-Dab-L-Dab-D-Leu-L-Leu-L-Dab-L-Dab-L-Leu]] (Octanoyl-[dDap][Dab][Dab][dL]L[Dab][Dab]L; lactam 2-C)",–,–,–,–,–,2,32,–,4,32,16,8,2,32,16,>32,16,4
"CCCCCCCCC(=O)N[C@@H](CCN)C(=O)N[C@H](C(=O)N[C@@H](CCN)C(=O)N[C@H]1CCNC(=O)[C@H](Cc2c[nH]c3ccccc23)NC(=O)[C@H](CCN)NC(=O)[C@H](CCN)NC(=O)[C@H](CC(C)C)NC(=O)[C@@H](Cc2ccccc2)NC(=O)[C@H](CCN)NC1=O)[C@@H](C)O [compound 9032, nC8CO-L-Dab-L-Thr-L-Dab-cyc[L-Dab-L-Dab-D-Phe-L-Leu-L-Dab-L-Dab-L-Trp]] (Nonanoyl-[Dab]T[Dab][Dab][Dab][dF]L[Dab][Dab]W; lactam 4-C)",–,–,–,–,–,2,4,1,4,8,8,8,2,4,8,16,8,–
